Results on 1 compound are retold here after patent publication US7704995B2 (Exelixis, Inc., priority 2003, dated 2010).

What is called IC50 is the midpoint of a concentration-inhibition curve.

One test has as its target T1, Chk1 (Homo sapiens, UniProt O14757).
T1 construct: purchased Upstate Biotechnology
T1 sequence (O14757 1-476): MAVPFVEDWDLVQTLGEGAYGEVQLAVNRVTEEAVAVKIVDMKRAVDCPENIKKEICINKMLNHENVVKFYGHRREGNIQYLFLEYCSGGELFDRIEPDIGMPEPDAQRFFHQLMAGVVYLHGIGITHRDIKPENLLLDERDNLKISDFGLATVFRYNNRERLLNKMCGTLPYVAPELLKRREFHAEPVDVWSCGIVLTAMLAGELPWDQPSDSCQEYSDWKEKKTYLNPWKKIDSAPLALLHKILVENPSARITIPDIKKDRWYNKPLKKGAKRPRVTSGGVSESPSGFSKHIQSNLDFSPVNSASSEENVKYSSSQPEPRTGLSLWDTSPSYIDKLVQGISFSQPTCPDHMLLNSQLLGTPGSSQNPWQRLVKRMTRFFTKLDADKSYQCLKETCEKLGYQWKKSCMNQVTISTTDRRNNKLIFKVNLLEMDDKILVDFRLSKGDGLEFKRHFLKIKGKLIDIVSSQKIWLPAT
Nature of the test: Chk1 kinase assay: incorporation of γ-33P ATP into immobilized myelin basic protein. Format: biochemical. As to conditions: 10 nM Chk1, 10 μM unlabeled ATP, 1 hour at room temperature; read-out: Chk1 inhibition, IC50. In outline: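 Enzyme activity is measured as γ-33P transfer from ATP onto immobilized MBP over 1 h at room temperature, with Chk1 at 10 nM/10 μM unlabeled ATP and Chk2 at 20 nM/30 μM unlabeled ATP. Compounds are tested in 1% DMSO.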

For a further test, the target named is T2, Chk2 (Homo sapiens, UniProt O96017).
T2 construct: purchased Upstate Biotechnology
T2 sequence (O96017 whole entry): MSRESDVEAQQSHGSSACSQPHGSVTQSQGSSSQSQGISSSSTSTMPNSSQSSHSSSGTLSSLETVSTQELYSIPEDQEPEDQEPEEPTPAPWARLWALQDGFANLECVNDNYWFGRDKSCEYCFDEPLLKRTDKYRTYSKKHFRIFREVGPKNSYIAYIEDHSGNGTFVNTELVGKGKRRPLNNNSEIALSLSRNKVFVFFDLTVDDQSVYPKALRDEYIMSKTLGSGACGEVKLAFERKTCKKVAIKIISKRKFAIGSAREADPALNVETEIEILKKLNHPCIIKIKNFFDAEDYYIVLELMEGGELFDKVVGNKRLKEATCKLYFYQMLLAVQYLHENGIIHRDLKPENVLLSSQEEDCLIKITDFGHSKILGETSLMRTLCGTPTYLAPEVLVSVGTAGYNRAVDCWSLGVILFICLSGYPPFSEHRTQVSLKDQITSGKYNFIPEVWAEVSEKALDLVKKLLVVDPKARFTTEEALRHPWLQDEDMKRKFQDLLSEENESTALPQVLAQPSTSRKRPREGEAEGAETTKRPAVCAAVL
Description: Chk2 kinase assay: incorporation of γ-33P ATP into immobilized myelin basic protein. Format: biochemical. As to conditions: 20 nM Chk2, 30 μM unlabeled ATP, 1 hour at room temperature; read-out: Chk2 inhibition, IC50. As to the method: Chk1 and Chk2 assays were performed by measuring incorporation of γ-^33P ATP into immobilized myelin basic protein (MBP). High binding white 384 well plates (Greiner) were coated with MBP (Sigma #M-1891) by incubation of 60 ul/well of 20 μg/ml MBP in Tris-buffered saline (TBS; 50 mM Tris pH 8.0, 138 mM NaCl, 2.7 mM KCl) for 24 hours at 4° C. Plates were washed 3× with 100 μl TBS. Kinase reactions were carried out in a total volume of 34 μl in kinase buffer (5 mM Hepes pH 7.6, 15 mM NaCl, 0.01% bovine gamma globulin (Sigma #I-5506), 10 mM MgCl2, 1 mM DTT, 0.02% TritonX-100). Compound dilutions were performed in DMSO and added to assay wells to a final DMSO concentration of 1%. Each data point was measured in duplicate, and at least two duplicate assays were performed for each individual compound determination. […] A mixture of unlabeled ATP and γ-^33P ATP was added to start the reaction (2×10^6 cpm of γ-^33P ATP per well (3000 Ci/mmole) and either 10 μM or 30 μM unlabeled ATP (for Chk1 and Chk2 assays respectively). The reaction was carried out for 1 hour at room temperature with shaking. Plates were washed 7× with TBS, followed by the addition of 50 μl/well scintillation fluid (Wallac). Plates were read using a Wallac Trilux counter. This is only one format of such assays, various other formats are possible, as known to those skilled in the art. […]

For `NC(=O)c1nc(-c2cccc3ccccc23)cnc1N` [Example 2, 3-Amino-6-naphthalen-1-ylpyrazine-2-carboxamide], the IC50 at Chk1 and at Chk2 was below 50 nM throughout.
